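In this assay, cells in 96-well plates receive the compound at five concentrations for 48 hours. Endpoints are linearly interpolated between the surrounding concentrations. TGI marks complete inhibition of growth.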
Experiments:
Assay in all cases: NCI tumour cell line growth inhibition, 48 h
786-0 renal = tested on: 786-0 renal
A498 renal = tested on: A498 renal
A549 NSCLC = tested on: A549 NSCLC
ACHN renal = tested on: ACHN renal
CCRF-CEM leukemia = tested on: CCRF-CEM leukemia
COLO 205 colon = tested on: COLO 205 colon
DLD-1 colon = tested on: DLD-1 colon
DMS 114 small cell lung = tested on: DMS 114 small cell lung
DMS 273 small cell lung = tested on: DMS 273 small cell lung
EKVX NSCLC = tested on: EKVX NSCLC
HCC-2998 colon = tested on: HCC-2998 colon
HCT-116 colon = tested on: HCT-116 colon
HCT-15 colon = tested on: HCT-15 colon
HL-60(TB) leukemia = tested on: HL-60(TB) leukemia
HOP-18 NSCLC = tested on: HOP-18 NSCLC
HOP-62 NSCLC = tested on: HOP-62 NSCLC
HT29 colon = tested on: HT29 colon
IGROV1 ovarian = tested on: IGROV1 ovarian
K-562 leukemia = tested on: K-562 leukemia
KM12 colon = tested on: KM12 colon
KM20L2 colon = tested on: KM20L2 colon
LOX IMVI melanoma = tested on: LOX IMVI melanoma
LXFL 529 NSCLC = tested on: LXFL 529 NSCLC
M14 melanoma = tested on: M14 melanoma
M19-MEL melanoma = tested on: M19-MEL melanoma
MALME-3M melanoma = tested on: MALME-3M melanoma
MOLT-4 leukemia = tested on: MOLT-4 leukemia
NCI-H23 lung = tested on: NCI-H23 lung
NCI-H460 lung = tested on: NCI-H460 lung
NCI-H522 lung = tested on: NCI-H522 lung
OVCAR-3 ovarian = tested on: OVCAR-3 ovarian
OVCAR-4 ovarian = tested on: OVCAR-4 ovarian
OVCAR-5 ovarian = tested on: OVCAR-5 ovarian
OVCAR-8 ovarian = tested on: OVCAR-8 ovarian
RXF 393 renal = tested on: RXF 393 renal
RXF-631 renal = tested on: RXF-631 renal
SF-268 CNS = tested on: SF-268 CNS
SF-539 CNS = tested on: SF-539 CNS
SK-MEL-2 melanoma = tested on: SK-MEL-2 melanoma
SK-MEL-28 melanoma = tested on: SK-MEL-28 melanoma
SK-MEL-5 melanoma = tested on: SK-MEL-5 melanoma
SK-OV-3 ovarian = tested on: SK-OV-3 ovarian
SN12C renal = tested on: SN12C renal
SNB-19 CNS = tested on: SNB-19 CNS
SNB-75 CNS = tested on: SNB-75 CNS
SNB-78 CNS = tested on: SNB-78 CNS
SR leukemia = tested on: SR leukemia
SW-620 colon = tested on: SW-620 colon
TK-10 renal = tested on: TK-10 renal
U251 CNS = tested on: U251 CNS
UACC-257 melanoma = tested on: UACC-257 melanoma
UACC-62 melanoma = tested on: UACC-62 melanoma
UO-31 renal = tested on: UO-31 renal
CAKI-1 renal = tested on: CAKI-1 renal
DU-145 prostate = tested on: DU-145 prostate
HOP-92 NSCLC = tested on: HOP-92 NSCLC
HS 578T breast = tested on: HS 578T breast
MCF7 breast = tested on: MCF7 breast
MDA-MB-231 breast = tested on: MDA-MB-231 breast
MDA-MB-435 = tested on: MDA-MB-435
MDA-N = tested on: MDA-N
NCI-H226 lung = tested on: NCI-H226 lung
NCI/ADR-RES ovarian = tested on: NCI/ADR-RES ovarian
PC-3 prostate = tested on: PC-3 prostate
RPMI-8226 leukemia = tested on: RPMI-8226 leukemia
SF-295 CNS = tested on: SF-295 CNS
T-47D breast = tested on: T-47D breast
XF 498 CNS = tested on: XF 498 CNS

In the case of NCCCCCS(=O)(=O)O, the TGI (786-0 renal) is reported as over 100 µM, the TGI (A498 renal) is reported as over 100 µM and the TGI (A549 NSCLC) is reported as over 100 µM. It also gave a TGI (ACHN renal) of over 100 µM, a TGI (CCRF-CEM leukemia) of over 100 µM and a TGI (COLO 205 colon) of over 100 µM. It also gave a TGI (DLD-1 colon) of over 100 µM, a TGI (DMS 114 small cell lung) of over 100 µM and a TGI (DMS 273 small cell lung) of over 100 µM. It also gave a TGI (EKVX NSCLC) of over 100 µM, a TGI (HCC-2998 colon) of over 100 µM and a TGI (HCT-116 colon) of over 100 µM. It also gave a TGI (HCT-15 colon) of over 100 µM, a TGI (HL-60(TB) leukemia) of over 100 µM and a TGI (HOP-18 NSCLC) of over 100 µM. For the same molecule, the TGI (HOP-62 NSCLC) was over 100 µM, the TGI (HT29 colon) was over 100 µM and the TGI (IGROV1 ovarian) was over 100 µM. For the same molecule, the TGI (K-562 leukemia) was over 100 µM, the TGI (KM12 colon) was over 100 µM and the TGI (KM20L2 colon) was over 100 µM. The TGI (LOX IMVI melanoma) was over 100 µM, the TGI (LXFL 529 NSCLC) was over 100 µM and the TGI (M14 melanoma) was over 100000 nM. For the same molecule, the TGI (M19-MEL melanoma) was over 100000 nM, the TGI (MALME-3M melanoma) was over 100000 nM and the TGI (MOLT-4 leukemia) was over 100 µM. The TGI (NCI-H23 lung) was over 100000 nM, the TGI (NCI-H460 lung) was over 100 µM and the TGI (NCI-H522 lung) was over 100 µM. For the same molecule, the TGI (OVCAR-3 ovarian) was over 100 µM, the TGI (OVCAR-4 ovarian) was over 100 µM and the TGI (OVCAR-5 ovarian) was over 100 µM. The TGI (OVCAR-8 ovarian) was over 100 µM, the TGI (RXF 393 renal) was over 100 µM and the TGI (RXF-631 renal) was over 100 µM. It also gave a TGI (SF-268 CNS) of over 100 µM, a TGI (SF-539 CNS) of over 100 µM and a TGI (SK-MEL-2 melanoma) of over 100 µM. For the same molecule, the TGI (SK-MEL-28 melanoma) was over 100000 nM, the TGI (SK-MEL-5 melanoma) was over 100000 nM and the TGI (SK-OV-3 ovarian) was over 100 µM. The TGI (SN12C renal) was over 100 µM, the TGI (SNB-19 CNS) was over 100 µM and the TGI (SNB-75 CNS) was over 100 µM. It also gave a TGI (SNB-78 CNS) of over 100 µM, a TGI (SR leukemia) of over 100 µM and a TGI (SW-620 colon) of over 100 µM. It also gave a TGI (TK-10 renal) of over 100 µM, a TGI (U251 CNS) of over 100 µM and a TGI (UACC-257 melanoma) of over 100000 nM. It also gave a TGI (UACC-62 melanoma) of over 100 µM and a TGI (UO-31 renal) of over 100 µM.

Work on Cc1csc2c1C(=O)c1ccsc1C2=O yielded a TGI (786-0 renal) of 16 µM, a TGI (A498 renal) of 32.5 µM and a TGI (A549 NSCLC) of 3.55 µM. The TGI (ACHN renal) was 10.7 µM, the TGI (CAKI-1 renal) was 34 µM and the TGI (CCRF-CEM leukemia) was over 100 µM. For the same molecule, the TGI (COLO 205 colon) was 24.8 µM, the TGI (DLD-1 colon) was 10.6 µM and the TGI (DMS 114 small cell lung) was 3.1 µM. It also gave a TGI (DMS 273 small cell lung) of 4.45 µM, a TGI (DU-145 prostate) of 3.29 µM and a TGI (EKVX NSCLC) of 20 µM. It also gave a TGI (HCC-2998 colon) of 14.6 µM, a TGI (HCT-116 colon) of 4.7 µM and a TGI (HCT-15 colon) of 3.51 µM. For the same molecule, the TGI (HL-60(TB) leukemia) was over 30.1 µM, the TGI (HOP-18 NSCLC) was 3.73 µM and the TGI (HOP-92 NSCLC) was 12.5 µM. It also gave a TGI (HS 578T breast) of 4.37 µM, a TGI (HT29 colon) of 7.33 µM and a TGI (IGROV1 ovarian) of 11.8 µM. The TGI (K-562 leukemia) was over 25.6 µM, the TGI (KM12 colon) was 11 µM and the TGI (KM20L2 colon) was 17.6 µM. The TGI (LOX IMVI melanoma) was 3.37 µM, the TGI (LXFL 529 NSCLC) was 13.3 µM and the TGI (M14 melanoma) was 2020 nM. The TGI (M19-MEL melanoma) was 339 nM, the TGI (MALME-3M melanoma) was 1070 nM and the TGI (MCF7 breast) was 2980 nM. The TGI (MDA-MB-231 breast) was 11 µM, the TGI (MDA-MB-435) was 447 nM and the TGI (MDA-N) was 889 nM. The TGI (MOLT-4 leukemia) was 27.2 µM, the TGI (NCI-H226 lung) was 23.4 µM and the TGI (NCI-H23 lung) was 2500 nM. The TGI (NCI-H460 lung) was 3.46 µM, the TGI (NCI-H522 lung) was 5.16 µM and the TGI (NCI/ADR-RES ovarian) was 5.9 µM. It also gave a TGI (OVCAR-3 ovarian) of 5.44 µM, a TGI (OVCAR-4 ovarian) of 3.34 µM and a TGI (OVCAR-5 ovarian) of 3.46 µM. For the same molecule, the TGI (OVCAR-8 ovarian) was 11.3 µM, the TGI (PC-3 prostate) was 8.1 µM and the TGI (RPMI-8226 leukemia) was 20.1 µM. The TGI (RXF 393 renal) was 11.8 µM, the TGI (SF-268 CNS) was 12.1 µM and the TGI (SF-295 CNS) was 2990 nM. It also gave a TGI (SF-539 CNS) of 3.93 µM, a TGI (SK-MEL-2 melanoma) of 4.51 µM and a TGI (SK-MEL-28 melanoma) of 2950 nM. The TGI (SK-MEL-5 melanoma) was 1820 nM, the TGI (SK-OV-3 ovarian) was 40.5 µM and the TGI (SN12C renal) was 4.83 µM. It also gave a TGI (SNB-19 CNS) of 9.98 µM, a TGI (SNB-75 CNS) of 3.51 µM and a TGI (SNB-78 CNS) of 16.5 µM. It also gave a TGI (SR leukemia) of over 45 µM, a TGI (SW-620 colon) of 5.31 µM and a TGI (T-47D breast) of 4.99 µM. The TGI (TK-10 renal) was 35.2 µM, the TGI (U251 CNS) was 13.6 µM and the TGI (UACC-257 melanoma) was 2880 nM. For the same molecule, the TGI (UACC-62 melanoma) was 3.07 µM, the TGI (UO-31 renal) was 8.85 µM and the TGI (XF 498 CNS) was 5.06 µM.

From PubChem BioAssay (NCI)
